Measured values taken from patent US20120258960A1, “NOVEL MULTIFUNCTIONAL PEPTIDASE INHIBITORS, ESPECIALLY FOR MEDICAL USE” (IMTM GMBH, priority 2009, published 2012).

What was measured:
Sprague-Dawley rats = assay: Infarct volume after transient focal cerebral ischemia (endothelin 1-induced middle cerebral artery occlusion, eMCAO); type: in vivo; settings: cortex, 7 days after eMCAO, % of vehicle control (100%), mean ± S.E.M.; 2 μl of 10 mmol/l intracerebroventricularly during ischemia, 6 and 24 h after reperfusion
Description: Studies were performed on male Sprague-Dawley rats (250 to 280 g) obtained from Harlan Winkelmann (Borchen, Germany). The animals were maintained under constant environmental conditions with ambient temperature of 21±2° C. and relative humidity of 40%. They were housed with a 12-h light-dark cycle and given food and water ad libitum.
For stock solution of the compounds, a compound determined for use in the study (25 mmol) was dissolved in dimethyl sulfoxide (DMSO, SigmaAldrich, Germany) and diluted with 0.1 M phosphate buffer saline (PBS, pH 7.4) to a final volume of 10 mmol/l. 2 μl of a 10 mmol/l test compound PBS/DMSO solution was administered intra-cerebroventricularly at different time points after the induction of transient focal cerebral ischemia. If not otherwise stated, all other chemicals were of highest available purity.
The procedure for the induction of transient focal cerebral ischemia by occlusion of the middle cerebral artery via microinjection of endothelin 1 adjacent to the middle cerebral artery was modified from that published previously by Sharkey and Butcher, 1995. Anesthesia was induced with halothane in a mixture of nitrous oxide/oxygen (70:30, v/v) and maintained with 2 to 3% halothane during the following procedures. Rats were placed in a Kopf stereotaxic frame and further anesthetized via nose cone. For the induction of focal cerebral ischemia, a burr hole was drilled (1 mm diameter) into the skull (coordinates: anterior 0.90 mm from bregma, lateral 5.2 mm to satura sagittalis), and the dura was carefully opened. A 29-gauge cannula was lowered 7.5 mm below the dura according to the rat brain atlas of Paxinos and Watson (31). To induce occlusion of the middle cerebral artery, rats received an injection of […] of endothelin 1 (ED-1, Sigma-Aldrich) in 3 μl of 0.1 M phosphate-buffered saline, pH 7.4, over a time period of 5 min. After a further 5 min, the cannula was slowly withdrawn.
For intracerebroventricular application of the compounds selected, a second burr hole was drilled into the skull (coordinates: posterior 0.80 mm from bregma, lateral 1.5 mm to satura sagittalis), and a second 29-gauge cannula was lowered 4.5 mm below the dura. Intracerebroventricular applications of selected compounds (2 μl of a 10 mmol/l PBS/DMSO solution, pH 7.4) were performed during ischemia, 6 and 24 h after reperfusion.
After a survival time of 7 days after endothelin-induced middle cerebral artery occusion (eMCAO), animals were anesthetized by an intraperitonial injection of pentobarbital and perfusion-fixed transcardially with saline, followed by 4% paraformaldehyde in 0.1 M phosphate buffer saline, pH 7.4. Brains were then removed carefully, post-fixed in the same fixative for 2 h, and placed in a rodent brain matrix (rat, Activational Systems Inc., Scientific Instrumentation). 1-mm coronal brain slices were cut with a razor blade at 14 predetermined anterior-posterior levels. After cryoprotection in 30% sucrose, slices were rapidly frozen in isopentane and stored at −80° C. Four to five cryostat sections (30 μm) from each brain slice were cut in a cryo microtome and stained with toluidine blue.
The extent of cortical damage following ischemic injury was documented with microphotographic images from the Nissl-stained slices showing the anterior-posterior level according to the brain atlas of Paxinos and Watson (31). The volume of cortical infarct was determined by an operator blinded to the group composition.
The extent of the infarct area at each level was calculated by integrating of the area of damage at each stereotactic level and the distances between the various levels. Using a light microscope (Nikon, Eclipse TE 3000) equipped with a 4× objective, the image analysis was performed with a computer-assisted image analysis system (Lucia software, Version 4.2.1).
The data were statistically analyzed by non-paired Student's t tests. […]

T lymphocytes = assay: Inhibition of proliferation of PHA-stimulated T lymphocytes (tritium thymidine incorporation); type: cell-based; settings: Homo sapiens, T-lymphocyte, 1 μg/ml Phytohemagglutinine, 48 hours, test compounds 0.1-250 μM, read-out: T cells IC50
Description: (§1) Peripheral blood mononuclear cells (PBMC) from healthy human volunteers were freshly isolated by density gradient centrifugation. T lymphocytes (T cells, Tc) were isolated from PBMC fractions via nylon wool adherence. Cells were cultured in standard cell culture media and stimulated by addition of 1 μg/ml Phytohemagglutinine for 48 hours in 96 well flat-bottom microtitre plates. Test compounds were added at concentration ranges from 0.1-250 μM over the total assay period.
DNA synthesis of proliferating T cells was determined by incorporation of radio labelled tritium thymidine and subsequent radio detection.
(§2) Data output was based on raw data and calculation of relative proliferation response in relation to PHA-activated T cells in the absence of test compound (100% control).
(§3) The […] value of proliferation suppression was assessed by graphical evaluation.

[1] = tested on: human peripheral blood mononuclear cells; assay: Inhibition of proliferation of PHA-stimulated mononuclear cells (BrdU incorporation); type: cell-based; settings: PBMC, 1 μg/ml Phytohemagglutinine, 48 hours, test compounds 0.1-250 μM, read-out: MNC IC50
Description: as §1
DNA synthesis of proliferating PBMC was assessed by incorporation of nucleotide analogue bromdesoxyuridine (BrdU) and subsequent detection of optical density (OD) at 450 nm.
as §2, §3

Row | Structure (SMILES) | Infarct Volume (%) (Sprague-Dawley rats) | IC50 (T lymphocytes) | IC50 [1]
1 | CCCCCCCCCCCCCCCC(=O)NC(CC(=O)NCC(C)(C)CNC(=O)C(O)C(Cc1ccccc1)NC(=O)CCCCCCCCCCCCCCC)Cc1cc(F)ccc1F (centres unmarked) [drawing 290] | 75.6 ± 16.6% |  | 
2 | CC(C)(CNCC(N)Cc1cc(F)ccc1F)CNC(=O)C(O)C(N)Cc1ccccc1 (centres unmarked) [drawing 292] | 59.9 ± 16.1 % |  | 
3 | CC(C)(NC(=O)CC(N)Cc1ccccc1)C(C)(C)NC(=O)C(O)C(N)Cc1ccccc1 (centres unmarked) [drawing 286] | 70.7 ± 6.1 % |  | 
4 | CCCCCCCCCCCCCC(=O)NC(CC(=O)NCC(C)(C)CNC(=O)C(O)C(Cc1ccccc1)NC(=O)CCCCCCCCCCCCC)Cc1cc(F)ccc1F (centres unmarked) [drawing 289] | 60.7 ± 17.1 % |  | 
5 | CCCCCCCCCCCCCCCC(=O)OC(C(=O)NCC(C)(C)CNC(=O)CC(N)Cc1cc(F)ccc1F)C(N)Cc1ccccc1 (centres unmarked) [drawing 288] | 58.6 ± 19.7 % |  | 
6 | NC(CC(=O)NCCCCNC(=O)C(O)C(N)Cc1ccccc1)Cc1cc(F)ccc1F (centres unmarked) [drawing 287] | 73.5 ± 5.7 % |  | 
7 | NC(CC(=O)NC1CCCC(NC(=O)C(O)C(N)Cc2ccccc2)C1)Cc1cc(F)ccc1F (centres unmarked) [drawing 291] | 64.2 ± 14.6 % |  | 
8 | CC(C)(CNC(=O)CC(N)C(=O)N1CCSC1)CNC(=O)C(O)C(N)Cc1ccccc1 (centres unmarked) [drawing 236] |  | ≥ 200 µM | 200 µM
9 | CC(C)(CNC(=O)CC(N)Cc1ccccc1)CNC(=O)C(O)C(N)Cc1ccccc1 (centres unmarked) [drawing 227] |  | ≥ 200 µM | 200 µM
